Read-outs that look alike come from different tables or passages of the source.
What was measured:
[1] = biological target: T1, spFolD (Streptococcus pneumoniae serotype 4, UniProt Q97RI9); assay: spFolD cyclohydrolase (CYH) enzyme assay; type: biochemical, S. pneumoniae
T1 construct: His-tag (TEV-cleavable, vector pHis-TEV); made in house; host or cells: E. coli BL21 (DE3)
Method: (§1) (6R,S)-5,10-Methylene-5,6,7,8-tetrahydrofolic acid ((6R,S)-5,10-CH2-THF) calcium salt and (6R,S)-5,10-Methenyl-5,6,7,8-tetrahydrofolic acid ((6R,S)-5,10-CH=THF) chloride were purchased from Schircks Laboratories (Bauma, Switzerland) and used as substrates for FolD dehydrogenase and cyclohydrolase enzyme assays, respectively. Only the R-isomer, which accounts for 50% of (6R,S)-5,10-CH2-THF and (6R,S)-5,10-CH=THF, respectively, is used by the enzyme. (6R,S)-5,10-CH2-THF was dissolved in N2-spargeled basic buffer (50 mM Tris-HCl (pH 8.0), 100 mM β-mercaptoethanol) as described by Varshney et al.[25]. (6R,S)-5,10-CH=THF was dissolved in DMSO as a 100 mM stock solution.
Because FolD is a bifunctional enzyme, dehydrogenase and cyclohydrolase activities were determined for FolD enzyme kinetics, respectively. The dehydrogenase activity of FolD was assayed for its substrate 5,10-CH2-THF and cofactor NADP^+ (in the case of MTHFD2, NAD^+ was used as the cofactor) based on monitoring the formation of 5,10-CH=THF, while the cyclohydrolase activity of FolD was determined for its substrate 5,10-CH=THF by monitoring the hydrolysis of […]. The enzyme kinetics for the dehydrogenase activity of all FolDs except hsMTHFD1_DC were determined at 30 °C in 50 mM Tris-HCl (pH 7.5), 30 mM β-mercaptoethanol. The hsMTHFD1_DC dehydrogenase activity was measured in 25 mM MOPS (pH 7.3), 30 mM β-mercaptoethanol at 30 °C. […] To monitor the formation of 5,10-CH=THF, the absorbance of the reaction mixture was monitored at 350 nm in micro UV cuvettes (BRAND, Essex, Connecticut, USA). The concentration of 5,10-CH=THF produced in the reaction was determined using an extinction co-efficient of 0.0249 μM^−1 cm^−1. […] The consumption of 5,10-CH=THF was measured by recording the absorbance of the reactions at 355 nm using the TECAN Infinite 200 PRO equipped with a monochromator. […] The inhibition constants (K i) of carolacton on FolD were determined by measuring the apparent K m when adding certain amounts of carolacton to the enzyme reactions. […]

[2] = biological target: T2, hsMTHFD1_DC (Homo sapiens, UniProt P11586); assay: hsMTHFD1_DC dehydrogenase (DH) enzyme assay; type: biochemical; conditions: hsMTHFD1 DC301
T2 construct: hsMTHFD1 DC301; His-tag (TEV-cleavable, vector pHis-TEV); made in house; host or cells: E. coli BL21 (DE3)
T2 sequence (P11586 2-291 limits assumed): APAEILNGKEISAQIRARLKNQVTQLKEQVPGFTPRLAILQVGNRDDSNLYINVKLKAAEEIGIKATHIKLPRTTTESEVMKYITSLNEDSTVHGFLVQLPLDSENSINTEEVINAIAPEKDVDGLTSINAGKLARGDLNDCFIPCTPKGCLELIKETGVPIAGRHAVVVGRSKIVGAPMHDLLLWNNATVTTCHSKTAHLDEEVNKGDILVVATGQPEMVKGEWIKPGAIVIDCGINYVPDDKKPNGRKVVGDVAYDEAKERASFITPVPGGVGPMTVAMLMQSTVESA
Method: as §1
Because FolD is a bifunctional enzyme, dehydrogenase and cyclohydrolase activities were determined for FolD enzyme kinetics, respectively. The dehydrogenase activity of FolD was assayed for its substrate 5,10-CH2-THF and cofactor NADP^+ (in the case of MTHFD2, NAD^+ was used as the cofactor) based on monitoring the formation of 5,10-CH=THF, while the cyclohydrolase activity of FolD was determined for its substrate 5,10-CH=THF by monitoring the hydrolysis of […]. The enzyme kinetics for the dehydrogenase activity of all FolDs except hsMTHFD1_DC were determined at 30 °C in 50 mM Tris-HCl (pH 7.5), 30 mM β-mercaptoethanol. The hsMTHFD1_DC dehydrogenase activity was measured in 25 mM MOPS (pH 7.3), 30 mM β-mercaptoethanol at 30 °C. To measure the enzyme kinetic constants for 5,10-CH2-THF, for example in the case of ecFolD, the NADP concentration was fixed at 1 mM and the concentration of 5,10-CH2-THF varied from 5 to 1500 μM (R-isomer). Similarly, to measure the kinetic constants of ecFolD for NADP^+, the concentration of 5,10-CH2-THF (R-isomer) was fixed at 1 mM and the concentration of NADP^+ varied from 10 to 1500 μM. For different FolDs, the varied concentration range of substrates could be different. […] To monitor the formation of 5,10-CH=THF, the absorbance of the reaction mixture was monitored at 350 nm in micro UV cuvettes (BRAND, Essex, Connecticut, USA). The concentration of 5,10-CH=THF produced in the reaction was determined using an extinction co-efficient of 0.0249 μM^−1 cm^−1. […] The consumption of 5,10-CH=THF was measured by recording the absorbance of the reactions at 355 nm using the TECAN Infinite 200 PRO equipped with a monochromator. […] The inhibition constants (K i) of carolacton on FolD were determined by measuring the apparent K m when adding certain amounts of carolacton to the enzyme reactions. […] To compare the inhibition effects of carolacton between the different FolDs, the half maximal inhibitory concentration (IC50) of carolacton on the same amount of enzyme was determined for FolDs involved in this study. […]

[3] = system: U-937; assay: Cytotoxicity screening, U-937 (alamar blue); type: cell-based, human; conditions: for EC50: 5 d, alamar blue
Method: Half maximal effective concentrations (EC50) on human cancer cell lines were determined as described elsewhere. Human cancer cell lines were maintained as recommended by the depositor (German Collection of Microorganisms and Cell Cultures, DSMZ) and were treated for 5 d with carolacton in serial dilution. The viability of adherent cell types, HCT-116 (ACC 581), KB-3.1 (ACC-158) and KB-V.1 (ACC-149) was assessed by the addition of MTT tetrazolium salt and absorbance measurement at 570 nm. Histiocytic lymphoma U-937 cells (ACC-5) were maintained in RPMI 1640 medium and transferred into folate-free medium prior to the assay. Cell viability was determined by measuring alamar blue fluorescence emission at 590 nm. The values were referenced and EC50 values were determined by sigmoidal curve fitting. The cell lines KB-3.1 and KB-V.1 are originally derived from HeLa, whereas the latter is an MDR subclone of KB-3.1. They were used to directly compare the activity of carolacton on an mdr1 overexpressing and a sensitive cell line.

T1 sequence (Q97RI9 whole entry): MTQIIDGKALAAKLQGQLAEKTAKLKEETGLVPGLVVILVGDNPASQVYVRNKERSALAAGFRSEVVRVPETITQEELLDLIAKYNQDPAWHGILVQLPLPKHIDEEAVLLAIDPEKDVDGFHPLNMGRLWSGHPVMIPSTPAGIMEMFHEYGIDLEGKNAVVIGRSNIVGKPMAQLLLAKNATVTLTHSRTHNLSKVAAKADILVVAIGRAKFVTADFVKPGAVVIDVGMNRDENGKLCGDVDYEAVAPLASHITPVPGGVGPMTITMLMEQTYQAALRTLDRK

## CO[C@H](CC(=O)O)[C@@H](C)C(=O)[C@H](C)/C=C(\C)[C@H]1OC(=O)[C@H](O)[C@H](O)/C=C/[C@H](C)CCC[C@@H]1C [carolacton]
[1]; 5 nM enzyme, read-out: IC50, carolacton inhibition on CYH activity
  IC50: 38.1 nM
[1]; 5 nM enzyme, read-out: IC80, carolacton inhibition on CYH activity
  IC80: 101 nM
[1]; vs 5,10-CH=THF, read-out: Ki (5,10-CH=THF), carolacton inhibition on CYH activity
  Ki: 38.1 nM
[2]; 10 nM enzyme, read-out: IC50, carolacton inhibition on DH activity
  IC50: 38 nM
[2]; 10 nM enzyme, read-out: IC80, carolacton inhibition on DH activity
  IC80: 77.6 nM
[2]; vs 5,10-CH2-THF, read-out: Ki (5,10-CH2-THF), carolacton inhibition on DH activity
  Ki: 5.93 nM
[2]; vs NADP+, read-out: Ki (NADP+), carolacton inhibition on DH activity
  Ki: 58.7 nM
[3]; Homo sapiens, U-937, 120 h, folate-depleted medium
  EC50: 42000 nM
[3]; Homo sapiens, U-937, 120 h, normal culture medium (RPMI 1640)
  EC50: > 100000 nM
[3]; folate-depleted medium
  Maximum inhibition: 65–75%
  EC50: 41700 ± 15200 nM

— paper PMC5688156, “The natural product carolacton inhibits folate-dependent C1 metabolism by targeting FolD/MTHFD” (Nature Communications, 2017)
